Series [1] in a line: Storage stability of the trimethylstannyl precursor. It counts as physicochemical. To be noted: −8 °C for several months.
Series [2] has as its target T1, rat A3 adenosine receptor (Rattus norvegicus, UniProt P28647).
T1 sequence (P28647 1-320): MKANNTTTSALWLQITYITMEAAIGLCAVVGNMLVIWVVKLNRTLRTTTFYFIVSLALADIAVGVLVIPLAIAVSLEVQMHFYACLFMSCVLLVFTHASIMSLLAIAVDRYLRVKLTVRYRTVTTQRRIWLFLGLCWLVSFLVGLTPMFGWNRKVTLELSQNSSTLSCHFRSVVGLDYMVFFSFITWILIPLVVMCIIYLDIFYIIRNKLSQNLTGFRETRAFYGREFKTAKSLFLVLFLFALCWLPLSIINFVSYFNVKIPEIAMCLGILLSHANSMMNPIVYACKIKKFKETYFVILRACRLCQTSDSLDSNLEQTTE
It counts as binding. To be noted: vs [125I]MRS1898 0.1 nM, rA3AR in CHO membranes, mean ± SEM.

The target in the next series is hA3AR. To be noted: cited from earlier work.
Another series deals with rA3AR. To be noted: cited from earlier work.
In another series the test system is mouse A3AR. The settings on record: cited from earlier work.
The target of the next series is rA1AR. The settings on record: cited from earlier work.

Where two headings read alike, the source gives them in different places.

In the case of `CNC(=O)[C@]12C[C@@H]1[C@@H](n1cnc3c(NCc4cccc([125I])c4)nc(Cl)nc31)[C@H](O)[C@@H]2O` [Compound 10], in series [1], the stability upon storage result is “stable”.
For `CCCOC(=O)c1c(-c2ccccc2)nc(CC)c(C(=O)SCC)c1CCC` [MRS1523, 5-propyl-2-ethyl-4-propyl-3-(ethylsulfanylcarbonyl)-6-phenylpyridine-5-carboxylate], the inhibitory constant (Ki) in series [2] turned out to be 518 ± 236 nM.
Turning to `CNc1ncnc2c1ncn2[C@@H]1O[C@H](CO)[C@@H](O)[C@H]1O` [N^6-methyladenosine], the Ki on hA3AR is 9.3 nM; on rA3AR (rA3AR), 6390 nM.
With `CCCCC#Cc1nc(NC)c2ncn([C@@H]3O[C@H](CO)[C@@H](O)[C@H]3O)c2n1` [[^3H]HEMADO, 2-hexyn-1-yl-N^6-methyladenosine], on hA3AR, the Kd is 1.1 nM. The “effect on the rA3AR” value with rA3AR (rA3AR) is recorded as “no effect”.
Take `CCCn1cc2c(nc(NC(=O)Nc3ccc(OC)cc3)n3nc(-c4ccco4)nc23)n1` [[^3H]MRE 3008F20, 5-[[(4-methoxyphenyl)amino]carbonyl]amino-8-propyl-2-(2-furyl)-pyrazolo[4,3-e]1,2,4-triazolo[1,5-c]pyrimidine]: the “binding to the mouse A3AR” value in the series with mouse A3AR is recorded as “do not bind effectively”. Besides, in the series with rA3AR (rA3AR), the “binding to the rA3AR” value is on record as “do not bind effectively”.
On to `CCNC(=O)[C@H]1O[C@@H](n2cnc3c(N)ncnc32)[C@H](O)[C@@H]1O` [[^3H]NECA, 5′-N-ethylcarboxamidoadenosine], for which, in the series with rA3AR (rA3AR), the “binding affinity at the rA3AR” value was “weak”.
Turning to `CC[C@@H]1CN2C(=O)N(C)c3nc(-c4ccccc4)[nH]c3C2=N1` [[^3H]PSB-11, (R)-4-methyl-8-ethyl-2-phenyl-imidazo[2,1-i]purin-5-one], in the series on mouse A3AR, the “binding to the mouse A3AR” value is “do not bind effectively”. The “binding to the rA3AR” value in the series on rA3AR (rA3AR) is listed as “do not bind effectively”.
Turning to `CNC(=O)[C@H]1O[C@@H](n2cnc3c(NCc4ccc(N)c(I)c4)ncnc32)[C@H](O)[C@@H]1O` [[^125I]I-AB-MECA, N^6-(4-amino-3-iodobenzyl)-5′-N-methylcarboxamidoadenosine], the Kd is approximately 1 nM on rA3AR (rat A3AR); 1.48 nM at rA3AR (read-out: affinity for rA3AR, radioligand affinity, A3); 3.42 nM on rA1AR (read-out: affinity for rA1AR, radioligand affinity, A1).
`Nc1ccc(CCNc2ncnc3c2ncn3[C@@H]2O[C@H](CO)[C@@H](O)[C@H]2O)cc1I` [[^125I]I-APNEA, N^6-(4-amino-3-iodophenylethyl)-adenosine]: the Kd at rA3AR (rA3AR) is 15 nM; at rA1AR (rA1AR), 1.32 nM.

Source of the values: article PMC2721771 (Purinergic Signalling, 2008).
